From ChEMBL document CHEMBL2331502, “Discovery of a novel series of quinolone α7 nicotinic acetylcholine receptor agonists” (Bioorg Med Chem Lett, 2013)
Values belong to the compound of their own block, whether it stands above or below them.

Legend:
[1] = Ratio of drug level in brain to plasma in ip dosed rat after 30 mins; format: ADME, organism-based; settings: read-out: BPR
[2] = Dissociation constant, pKa of the compound; format: physicochemical
[3] = Efflux ratio of the compound in human Caco2 cells; format: ADME, cell-based; settings: Caco-2
[4] = target: T1, Neuronal acetylcholine receptor subunit alpha-7 (Rattus norvegicus, UniProt Q05941); experiment: Agonist activity at rat alpha7 nAChR expressed in HEK293 cells assessed as area under the curve of acetylcholine-induced response by whole-cell patch clamp electrophysiology paradigm assay; format: cell-based
[5] = Permeability of the compound at pH 7.4 by PAMPA; format: ADME; settings: read-out: permeability
[6] = target: T1, Neuronal acetylcholine receptor subunit alpha-7; experiment: Agonist activity at rat alpha7 nAChR expressed in HEK293 cells assessed as calcium ion influx by FRET assay; format: cell-based
[7] = target: Neuronal acetylcholine receptor subunit alpha-7 (Rattus norvegicus) (UniProt Q05941); experiment: Agonist activity at rat alpha7 nAChR expressed in HEK293 cells assessed as peak intensity of acetylcholine-induced response by whole-cell patch clamp electrophysiology paradigm assay relative to control; format: cell-based
[8] = target: Neuronal acetylcholine receptor subunit alpha-7 (Rattus norvegicus) (UniProt Q05941); experiment: Agonist activity at rat alpha7 nAChR expressed in HEK293 cells assessed as area under the curve of acetylcholine-induced response by whole-cell patch clamp electrophysiology paradigm assay relative to control; format: cell-based
[9] = Ratio of drug level in brain to plasma in sc dosed rat after 30 mins; format: ADME, organism-based; settings: read-out: BPR
[10] = target: Neuronal acetylcholine receptor; alpha3/beta4 (Homo sapiens, UniProt P30926+P32297); experiment: Agonist activity at alpha3beta4 nAChR (unknown origin); format: protein-complex assay
[11] = target: T2, 5-hydroxytryptamine receptor 3A (Homo sapiens, UniProt P46098); experiment: Inhibition of 5HT3 receptor (unknown origin)
T2 sequence (P46098 whole entry): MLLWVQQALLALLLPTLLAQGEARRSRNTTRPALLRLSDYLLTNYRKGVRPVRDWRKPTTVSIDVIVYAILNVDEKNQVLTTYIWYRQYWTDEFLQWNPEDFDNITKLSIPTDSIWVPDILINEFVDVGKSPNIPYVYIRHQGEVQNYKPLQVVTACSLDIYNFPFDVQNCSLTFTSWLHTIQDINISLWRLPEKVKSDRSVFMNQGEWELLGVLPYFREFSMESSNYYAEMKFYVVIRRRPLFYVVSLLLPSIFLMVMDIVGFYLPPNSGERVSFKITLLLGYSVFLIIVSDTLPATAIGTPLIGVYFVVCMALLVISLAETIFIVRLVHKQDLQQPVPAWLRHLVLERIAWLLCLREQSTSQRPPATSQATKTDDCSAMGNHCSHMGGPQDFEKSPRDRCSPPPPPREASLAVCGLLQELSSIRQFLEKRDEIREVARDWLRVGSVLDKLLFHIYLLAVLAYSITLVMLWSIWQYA

[12] = target: Neuronal acetylcholine receptor; alpha4/beta2 (Homo sapiens, UniProt P17787+P43681); experiment: Agonist activity at alpha4beta2 nAChR (unknown origin); format: protein-complex assay
[13] = target: Acetylcholine receptor; alpha1/beta1/delta/gamma (Homo sapiens, UniProt P02708+P07510+P11230+Q07001); experiment: Agonist activity at alpha1beta1deltaepsilon nAChR (unknown origin); format: protein-complex assay
[14] = Selectivity ratio of EC50 for alpha3beta4 nAChR (unknown origin) to EC50 for rat alpha7 nAChR
[15] = Selectivity ratio of IC50 for 5HT3 receptor (unknown origin) to EC50 for rat alpha7 nAChR
[16] = Selectivity ratio of EC50 for alpha4beta2 nAChR (unknown origin) to EC50 for rat alpha7 nAChR
[17] = Selectivity ratio of EC50 for alpha1beta1deltaepsilon nAChR (unknown origin) to EC50 for rat alpha7 nAChR

Sequence of Neuronal acetylcholine receptor subunit alpha-7 (Rattus norvegicus) (Q05941 whole entry): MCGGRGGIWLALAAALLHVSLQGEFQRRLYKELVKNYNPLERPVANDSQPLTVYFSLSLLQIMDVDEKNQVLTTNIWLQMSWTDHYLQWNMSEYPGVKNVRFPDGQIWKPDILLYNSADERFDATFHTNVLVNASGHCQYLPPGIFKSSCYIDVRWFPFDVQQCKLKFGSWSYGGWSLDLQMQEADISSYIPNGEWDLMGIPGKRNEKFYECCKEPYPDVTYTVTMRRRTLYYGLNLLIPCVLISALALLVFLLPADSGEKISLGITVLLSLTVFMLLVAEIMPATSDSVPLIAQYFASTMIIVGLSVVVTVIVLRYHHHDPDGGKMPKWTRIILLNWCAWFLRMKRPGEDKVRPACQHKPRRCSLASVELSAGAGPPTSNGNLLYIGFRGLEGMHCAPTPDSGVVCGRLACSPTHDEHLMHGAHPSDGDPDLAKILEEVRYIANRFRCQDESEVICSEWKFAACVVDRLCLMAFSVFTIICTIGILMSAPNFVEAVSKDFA
T1 sequence (Q05941 whole entry): as above
Sequence of Neuronal acetylcholine receptor; alpha4/beta2 (P17787 whole entry): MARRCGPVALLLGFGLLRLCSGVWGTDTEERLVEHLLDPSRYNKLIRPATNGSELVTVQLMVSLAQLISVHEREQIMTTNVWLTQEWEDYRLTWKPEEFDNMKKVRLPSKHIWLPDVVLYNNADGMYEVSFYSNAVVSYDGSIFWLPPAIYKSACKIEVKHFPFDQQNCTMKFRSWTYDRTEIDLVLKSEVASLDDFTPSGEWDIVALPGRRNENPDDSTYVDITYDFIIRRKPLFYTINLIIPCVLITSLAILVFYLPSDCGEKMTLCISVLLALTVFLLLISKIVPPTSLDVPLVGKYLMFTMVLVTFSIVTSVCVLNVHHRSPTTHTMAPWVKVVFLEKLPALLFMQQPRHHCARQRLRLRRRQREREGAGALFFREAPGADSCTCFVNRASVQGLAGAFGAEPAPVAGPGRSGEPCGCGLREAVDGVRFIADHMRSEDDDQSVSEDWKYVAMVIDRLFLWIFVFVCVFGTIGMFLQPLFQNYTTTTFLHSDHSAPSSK
Sequence of Neuronal acetylcholine receptor; alpha4/beta2 (P43681 whole entry): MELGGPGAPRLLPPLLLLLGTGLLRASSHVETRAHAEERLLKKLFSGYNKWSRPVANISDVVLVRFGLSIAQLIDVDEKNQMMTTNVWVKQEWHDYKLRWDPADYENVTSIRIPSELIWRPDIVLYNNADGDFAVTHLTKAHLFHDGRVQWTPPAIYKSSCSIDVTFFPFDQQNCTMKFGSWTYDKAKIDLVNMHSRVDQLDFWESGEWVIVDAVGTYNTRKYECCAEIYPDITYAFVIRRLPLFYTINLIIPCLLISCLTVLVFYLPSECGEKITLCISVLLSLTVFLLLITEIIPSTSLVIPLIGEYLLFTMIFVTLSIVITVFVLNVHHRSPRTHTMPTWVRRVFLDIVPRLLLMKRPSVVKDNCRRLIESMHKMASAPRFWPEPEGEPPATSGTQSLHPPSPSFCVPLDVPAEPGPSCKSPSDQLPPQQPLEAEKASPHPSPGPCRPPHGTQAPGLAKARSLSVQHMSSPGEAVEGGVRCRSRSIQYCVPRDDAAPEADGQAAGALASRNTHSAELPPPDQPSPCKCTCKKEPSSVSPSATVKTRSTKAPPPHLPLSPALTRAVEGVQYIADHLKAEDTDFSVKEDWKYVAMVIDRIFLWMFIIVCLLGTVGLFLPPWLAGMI
Sequence of Neuronal acetylcholine receptor; alpha3/beta4 (P30926 whole entry): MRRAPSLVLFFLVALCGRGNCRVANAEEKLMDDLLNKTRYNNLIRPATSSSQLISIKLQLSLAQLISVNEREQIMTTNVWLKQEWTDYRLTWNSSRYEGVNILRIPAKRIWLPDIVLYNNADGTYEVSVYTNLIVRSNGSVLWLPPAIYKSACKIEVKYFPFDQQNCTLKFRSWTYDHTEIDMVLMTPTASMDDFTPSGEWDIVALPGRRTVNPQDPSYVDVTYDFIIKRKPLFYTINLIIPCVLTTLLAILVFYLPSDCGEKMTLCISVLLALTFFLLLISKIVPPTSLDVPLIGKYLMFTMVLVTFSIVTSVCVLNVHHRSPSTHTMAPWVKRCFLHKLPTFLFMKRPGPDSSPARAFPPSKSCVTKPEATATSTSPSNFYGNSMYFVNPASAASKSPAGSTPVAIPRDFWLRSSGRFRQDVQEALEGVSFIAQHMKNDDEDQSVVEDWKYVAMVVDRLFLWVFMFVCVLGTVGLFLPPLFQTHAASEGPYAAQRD
Sequence of Neuronal acetylcholine receptor; alpha3/beta4 (P32297 whole entry): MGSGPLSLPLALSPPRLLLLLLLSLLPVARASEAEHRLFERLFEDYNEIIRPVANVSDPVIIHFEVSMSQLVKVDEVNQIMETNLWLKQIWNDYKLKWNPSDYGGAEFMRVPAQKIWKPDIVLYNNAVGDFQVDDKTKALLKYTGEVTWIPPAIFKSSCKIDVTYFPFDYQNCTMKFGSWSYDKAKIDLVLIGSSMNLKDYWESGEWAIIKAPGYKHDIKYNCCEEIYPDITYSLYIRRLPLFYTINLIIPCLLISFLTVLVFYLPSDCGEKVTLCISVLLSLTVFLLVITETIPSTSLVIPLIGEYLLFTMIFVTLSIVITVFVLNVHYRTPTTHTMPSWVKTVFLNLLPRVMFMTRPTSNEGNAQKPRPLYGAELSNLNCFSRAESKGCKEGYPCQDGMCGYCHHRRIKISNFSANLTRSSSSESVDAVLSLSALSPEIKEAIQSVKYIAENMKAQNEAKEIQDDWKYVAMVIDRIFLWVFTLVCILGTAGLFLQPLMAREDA
Sequence of Acetylcholine receptor; alpha1/beta1/delta/gamma (P02708 whole entry): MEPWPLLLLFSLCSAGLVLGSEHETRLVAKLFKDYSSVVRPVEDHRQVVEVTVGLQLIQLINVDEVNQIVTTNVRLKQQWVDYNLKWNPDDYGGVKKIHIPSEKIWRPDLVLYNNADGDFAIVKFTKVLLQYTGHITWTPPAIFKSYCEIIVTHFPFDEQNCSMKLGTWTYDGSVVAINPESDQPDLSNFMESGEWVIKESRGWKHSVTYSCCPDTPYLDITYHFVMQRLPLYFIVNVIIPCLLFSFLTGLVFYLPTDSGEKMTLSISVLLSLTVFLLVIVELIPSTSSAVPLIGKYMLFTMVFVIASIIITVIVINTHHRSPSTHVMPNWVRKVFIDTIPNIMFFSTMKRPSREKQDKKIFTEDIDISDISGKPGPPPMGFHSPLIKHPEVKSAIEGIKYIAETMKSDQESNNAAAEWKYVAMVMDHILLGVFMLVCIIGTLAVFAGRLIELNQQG
Sequence of Acetylcholine receptor; alpha1/beta1/delta/gamma (P07510 whole entry): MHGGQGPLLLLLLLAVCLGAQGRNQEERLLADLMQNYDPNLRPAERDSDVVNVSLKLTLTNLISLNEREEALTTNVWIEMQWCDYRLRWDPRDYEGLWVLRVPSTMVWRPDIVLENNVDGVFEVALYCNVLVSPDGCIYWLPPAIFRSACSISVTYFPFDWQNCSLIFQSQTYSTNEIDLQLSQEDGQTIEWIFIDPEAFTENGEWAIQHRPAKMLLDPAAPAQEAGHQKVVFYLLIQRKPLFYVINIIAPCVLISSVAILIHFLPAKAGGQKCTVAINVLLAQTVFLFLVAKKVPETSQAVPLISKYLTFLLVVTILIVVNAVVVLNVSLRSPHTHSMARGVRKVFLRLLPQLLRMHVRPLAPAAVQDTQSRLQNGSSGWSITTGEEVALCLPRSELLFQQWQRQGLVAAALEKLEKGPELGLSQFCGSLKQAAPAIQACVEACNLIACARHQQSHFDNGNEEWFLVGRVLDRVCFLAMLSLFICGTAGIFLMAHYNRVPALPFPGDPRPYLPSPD
Sequence of Acetylcholine receptor; alpha1/beta1/delta/gamma (P11230 whole entry): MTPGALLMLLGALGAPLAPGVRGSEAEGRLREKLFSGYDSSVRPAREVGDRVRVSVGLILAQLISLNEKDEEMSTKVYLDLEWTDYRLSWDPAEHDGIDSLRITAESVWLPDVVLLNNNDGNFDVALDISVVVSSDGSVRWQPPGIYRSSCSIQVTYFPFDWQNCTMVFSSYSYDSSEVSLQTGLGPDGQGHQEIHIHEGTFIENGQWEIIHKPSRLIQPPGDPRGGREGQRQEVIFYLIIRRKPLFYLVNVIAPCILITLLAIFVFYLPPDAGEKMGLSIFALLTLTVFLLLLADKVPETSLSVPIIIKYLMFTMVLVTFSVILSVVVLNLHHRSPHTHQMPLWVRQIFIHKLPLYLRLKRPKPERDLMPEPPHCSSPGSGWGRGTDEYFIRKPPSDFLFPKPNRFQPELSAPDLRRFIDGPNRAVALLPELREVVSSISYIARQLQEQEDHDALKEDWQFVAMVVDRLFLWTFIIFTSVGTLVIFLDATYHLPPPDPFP
Sequence of Acetylcholine receptor; alpha1/beta1/delta/gamma (Q07001 whole entry): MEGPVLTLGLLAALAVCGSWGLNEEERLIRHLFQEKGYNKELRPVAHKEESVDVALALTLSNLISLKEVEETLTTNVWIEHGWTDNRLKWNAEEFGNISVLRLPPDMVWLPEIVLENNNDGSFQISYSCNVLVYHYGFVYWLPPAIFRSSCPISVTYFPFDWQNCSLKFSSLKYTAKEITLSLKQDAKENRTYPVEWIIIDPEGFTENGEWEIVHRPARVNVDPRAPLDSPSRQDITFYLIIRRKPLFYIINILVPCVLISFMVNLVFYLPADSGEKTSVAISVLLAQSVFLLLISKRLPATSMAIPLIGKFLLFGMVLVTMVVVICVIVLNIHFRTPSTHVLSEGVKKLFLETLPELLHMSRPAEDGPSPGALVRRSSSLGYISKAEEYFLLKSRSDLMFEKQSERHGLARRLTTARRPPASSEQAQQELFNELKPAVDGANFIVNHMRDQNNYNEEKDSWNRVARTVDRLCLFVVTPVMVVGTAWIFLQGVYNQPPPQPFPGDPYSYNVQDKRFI

Compound: O=c1cc(-c2ccccc2)c2ccccc2n1CC1CN2CCC1CC2 (centres undefined)
- Kp at 0.5 h [1]: 0.02
- pKa [2]: 10.1
- efflux ratio [3]: 6.9
- EC50 [4]: 760 nM
- Papp [5]: 90 ×10⁻⁶ cm/s
- EC50 [6]: 150 nM
- Emax [7]: 60%
- Emax [8]: 110%

- pKa [2]: 8.1
- efflux ratio [3]: 1
- EC50 [4]: 1200 nM
- Papp [5]: 55 ×10⁻⁶ cm/s
- EC50 [6]: 260 nM
- Emax [7]: 34%
- Kp at 0.5 h [9]: 0.9
- Emax [8]: 41%
Compound: O=c1cc(-c2ccccc2)c2ccccc2n1CC1CNCCO1 (centres undefined)

- EC50 [4]: 2500 nM
- EC50 [6]: 210 nM
- Emax [7]: 60%
- Emax [8]: 30%
Compound: O=c1cc(-c2ccccc2)c2ccccc2n1CC1CCCNC1 (centres undefined)

- EC50 [6]: 900 nM
Compound: CNCCCn1c(=O)c(C#N)c(-c2ccccc2)c2ccccc21

- EC50 [6]: 9300 nM
Compound: N#Cc1c(-c2ccccc2)c2ccccc2n(CCCN2CCCC2)c1=O

- EC50 [6]: 4300 nM
Compound: CCN(C)CCCn1c(=O)c(C#N)c(-c2ccccc2)c2ccccc21

Compound: CN(C)CCCn1c(=O)c(C#N)cc2ccccc21
- EC50 [6]: > 10000 nM

Compound: CN(C)CCCn1ccc(-c2ccccc2)c(C#N)c1=O
- EC50 [6]: > 10000 nM

- EC50 [10]: > 100000 nM
- IC50 [11]: 19000 nM
- EC50 [12]: > 100000 nM
- EC50 [4]: 8200 nM
- EC50 [6]: 1300 nM
- Emax [7]: 15%
- EC50 [13]: > 100000 nM
- Emax [8]: 44%
Compound: CN(C)CCCn1c(=O)c(C#N)c(-c2ccccc2)c2ccccc21

- EC50 [6]: 2800 nM
Compound: CN(C)CCCn1c(=O)cc(-c2ccccc2)c2ccccc21

Compound: CN(C)CCn1c(=O)cc(-c2ccccc2)c2ccccc21
- EC50 [6]: > 10000 nM

Compound: CN(C)CCCCn1c(=O)cc(-c2ccccc2)c2ccccc21
- EC50 [6]: > 10000 nM

- EC50 [6]: 100 nM
Compound: CC(=O)NCc1cccc(-c2cc(=O)n(CC3CCCNC3)c3ccccc23)c1 (racemic)

Compound: O=c1cc(-c2ccccc2)c2ccccc2n1CC1CN2CCC1(F)CC2 (racemic)
- pKa [2]: 7.6
- efflux ratio [3]: 0.6
- Papp [5]: 38 ×10⁻⁶ cm/s

Compound: CC(=O)NCc1cccc(-c2cc(=O)n(CC3CN4CCC3CC4)c3ccccc23)c1 (racemic)
- Ratio EC50 [14]: 100
- Ratio IC50/EC50 [15]: 50
- Ratio EC50 [16]: 100
- Ratio EC50 [17]: 100
- Papp [5]: 0.1 ×10⁻⁶ cm/s
- EC50 [6]: 32 nM
- Emax [7]: 21%
- Emax [8]: 84%

Compound: CS(=O)(=O)NCc1cccc(-c2cc(=O)n(CC3CN4CCC3CC4)c3ccccc23)c1 (racemic)
- Ratio EC50 [14]: 100
- Ratio IC50/EC50 [15]: 50
- Ratio EC50 [16]: 100
- Ratio EC50 [17]: 100
- EC50 [4]: 260 nM
- EC50 [6]: 14 nM
- Emax [7]: 21%
- Emax [8]: 97%

Compound: O=c1cc(-c2cccc3[nH]ccc23)c2ccccc2n1CC1CN2CCC1CC2 (racemic)
- Ratio EC50 [14]: 100
- Ratio IC50/EC50 [15]: 50
- Ratio EC50 [16]: 100
- Ratio EC50 [17]: 100
- efflux ratio [3]: > 18
- EC50 [4]: 540 nM
- Papp [5]: 40 ×10⁻⁶ cm/s
- EC50 [6]: 23 nM
- Emax [7]: 62%
- Emax [8]: 80%

Compound: Cc1ccc(-c2cc(=O)n(CC3CCCNC3)c3ccccc23)cc1 (racemic)
- EC50 [6]: > 10000 nM

- EC50 [6]: 110 nM
Compound: O=c1cc(-c2cccc3[nH]ccc23)c2ccccc2n1CC1CCCNC1 (racemic)

- EC50 [6]: 77 nM
Compound: CS(=O)(=O)NCc1cccc(-c2cc(=O)n(CC3CCCNC3)c3ccccc23)c1 (racemic)

- EC50 [6]: 1300 nM
Compound: COc1cccc(-c2cc(=O)n(CC3CCCNC3)c3ccccc23)c1 (racemic)

- EC50 [6]: 1500 nM
Compound: Cc1ccccc1-c1cc(=O)n(CC2CCCNC2)c2ccccc12 (racemic)

Compound: CN1CCCC(Cn2c(=O)c(C#N)c(-c3ccccc3)c3ccccc32)C1 (racemic)
- EC50 [6]: > 10000 nM

- EC50 [6]: 460 nM
Compound: N#Cc1c(-c2ccccc2)c2ccccc2n(CC2CCCNC2)c1=O (racemic)

Compound: CC(CN(C)C)Cn1c(=O)cc(-c2ccccc2)c2ccccc21 (racemic)
- EC50 [6]: > 10000 nM

Compound: CC(CCn1c(=O)cc(-c2ccccc2)c2ccccc21)N(C)C (racemic)
- EC50 [6]: > 10000 nM

Compound: c1cnc2c(c1)C[C@@]1(CN3CCC1CC3)O2 [AZD0328]
- pKa [2]: 8.9
- efflux ratio [3]: 0.9
- Papp [5]: 51 ×10⁻⁶ cm/s
- Kp at 0.5 h [9]: 1.7
